These results are taken from article PMC9934367, “Functional impact of subunit composition and compensation on Drosophila melanogaster nicotinic receptors–targets of neonicotinoids” (PLOS Genetics, 2023).

The subject of this assay is Adult D. melanogaster flies. Nature of the assay: Adult climbing assay. Format: in vivo. To be noted: RNAi of Dα2. On the procedure: All flies were raised at 25°C under 12 h/12 h light/dark cycle. The animals were reared on standard fly food containing 5.5 g agar, 100 g glucose, 40 g dry yeast, 90 g cornflour, 3 mL propionic acid, and 3.5 mL 10% butyl p-hydroxybenzoate (Nacalai Tesque, Japan, #06327–15) in 70% ethanol per liter. The control strain was w^1118, and transgenic flies are as follows: UAS-nAChRα1 RNAi (#28688) was obtained from the Bloomington Drosophila Stock Center (BDSC); UAS-nAChRα2 RNAi (UAS-Dα2 RNAi, #10760), UAS-nAChRα3 RNAi (UAS-Dα3 RNAi, #101806); UAS-dicer2 (#60009) were obtained from the Vienna Drosophila Resource Center (VDRC); and UAS-mCD8::GFP (#108068) was obtained from Kyoto Stock Center. elav-Gal4 (3A3) was obtained from Michael B. O’Connor. nAChRα3-knock-in 2A-Gal4 (Dα3-knock-in T2A-Gal4) was generated by the CRISPR/Cas9 system as described in detail below.
Adult D. melanogaster flies were collected within a day following eclosion and placed in normal fly food (less than 30 flies/vial). Flies were transferred daily to new fly food. 2–5 days after eclosion, flies were briefly anesthetised with CO2, and the sexes were separated and sorted into fly vials containing 1.0% agar food for starvation (10 flies/vial). After 16 h starvation, flies were transferred to vials containing neonicotinoid-containing food without anesthesia and cultured for 6 h (10 flies/vial). Neonicotinoid-containing foods were prepared by mixing 10 μL of diluted neonicotinoids dissolved in DMSO with 990 μL of a solution containing 1% agar and 5% sucrose for each vial. After 6 h cultured in vials containing neonicotinoid-containing food, flies were gently tapped down to the surface of the food, and flies that climbed within 20 s after tapping were recorded by a video camera (GZ-F270-W, JVCKENWOOD, Japan). The maximum climbing heights of the flies within 20 s after tapping were measured using ImageJ1.53v (National Institute of Health, USA). Since the height from the surface of the food to the vial top is 8 cm, the maximum climbing height is 8 cm.

As to `CN/C(=N\[N+](=O)[O-])NCc1cnc(Cl)s1` [Clothianidin, clothianidin], where the note is “adult males”, the “sensitivity in adults, effect of RNAi” value is “hypersensitivity”.

Consider `O=[N+]([O-])NC1=NCCN1Cc1ccc(Cl)nc1` [Imidacloprid, imidacloprid], for which the “sensitivity in adults, effect of RNAi” value (adult females) is “hypersensitivity” and the “sensitivity in adults, effect of RNAi” value (adult males) was “hypersensitivity”. As to `N#C/N=C1\SCCN1Cc1ccc(Cl)nc1` [Thiacloprid, thiacloprid], the “sensitivity in adults, effect of RNAi” value runs as follows: (adult females) “hypersensitivity”; (adult males) “hypersensitivity”.
